One may read the inhibition as the share of the control response that was lost under treatment.

The test system of one assay is Gaeumannomyces graminis var. tritici (Ggt). The assay can be described thus: In vitro Assay: mycelial growth of Ggt on minimal media agar plates containing test compound. The class given is cell-based. The settings on record: Gaeumannomyces graminis; 0.1 ppm in minimal media agar; dark, 19-20° C., 4 to 5 days; diameter of mycelial growth; read-out: In vitro (ppm) 0.1, Percent Inhibition. Here is the method: The test compounds (0.25 mL of an appropriate stock solution in acetone) are incorporated into 25 mL minimal media agar [(prepared by autoclaving a solution of 17.5 g Czapek Dox broth (Difco), 7.5 g purified agar or Bacto-agar (Difco), and 500 mL distilled/deionized water, and then adding 50 μL of 1 mg/mL thiamine hydrochloride and 50 μL of 1 mg/mL biotin in 5% ethanol] and plates are prepared.
Each plate is inoculated by placing in a triangular shape three 4-mm plugs of Gaeumannomyces graminis var. tritici (Ggt) grown on the minimal media agar described above. The plates are incubated in the dark at 19-20° C. for 4 to 5 days. The growth of the fungus is measured as the diameter of the mycelial growth. The result is expressed as Percent Inhibition, calculated as [1-[(mm growth on treated plate −4)/(mm growth on control plate −4)]]×100.
Regarding `COc1ccc(CNC(=O)c2c(Cl)cccc2[Si](C)(C)C)cc1` [Example 136, 2-Chloro-N-[(4-methoxyphenyl)methyl]-6-(trimethylsilyl)benzamide], the inhibition at 0.1 ppm stood at 3%.
Take `C[Si](C)(C)c1cccc(Cl)c1C(=O)NCc1ccc([N+](=O)[O-])cc1` [Example 137, 2-Chloro-N-[(4-nitrophenyl)-methyl]-6-(trimethylsilyl)-benzamide]: the inhibition at 0.1 ppm was 17%.
The same measure, in the same setting: then `C[Si](C)(C)c1cccc(Cl)c1C(=O)NCc1cccs1` [Example 138, 2-Chloro-N-(2-thienylmethyl)-6-(trimethylsilyl)benzamide], with 14%; and `COc1cccc(CNC(=O)c2c(Cl)cccc2[Si](C)(C)C)c1` [Example 139, 2-Chloro-N-[(3-methoxyphenyl)methyl]-6-(trimethylsilyl)benzamide], with 11%.
Same read-out and setting: the result for `COc1cc(CNC(=O)c2c(Cl)cccc2[Si](C)(C)C)cc(OC)c1OC` [Example 140, 2-Chloro-N-[(3,4,5-trimethoxyphenyl)methyl]-6-(trimethylsilyl)benzamide] reads 19%; that for `C[Si](C)(C)c1cccc(Cl)c1C(=O)NCc1cccc([N+](=O)[O-])c1` [Example 141, 2-Chloro-N-[(3-nitrophenyl)-methyl]-6-(trimethylsilyl)-benzamide], 19%.
Take `C[Si](C)(C)c1cccc(Cl)c1C(=O)NCC#N` [Example 142, 2-Chloro-N-(cyanomethyl)-6-(trimethylsilyl)benzamide]: the inhibition at 0.1 ppm is < 0%.
For the compound `CCN(CO)C(=O)c1c(C)cccc1[Si](C)(C)C` [Example 143, N-Ethyl-N-(hydroxymethyl)-2-methyl-6-(trimethylsilyl)benzamide], the inhibition at 0.1 ppm is 5%.
Same read-out and setting: the result for `C[Si](C)(C)c1cccc(Cl)c1C(=O)NCc1ccc2c(c1)OCO2` [Example 144, N-(1,3-benzodioxol-5-ylmethyl)-2-chloro-6-(trimethylsilyl)benzamide] reads < 0%; that for `C[Si](C)(C)c1cccc(Cl)c1C(=O)NCc1ccncc1` [Example 145, 2-Chloro-N-(4-pyridinylmethyl)-6-(trimethylsilyl)benzamide], < 0%; that for `COCCNC(=O)c1c(Cl)cccc1[Si](C)(C)C` [Example 146, 2-Chloro-N-(2-methoxyethyl)-6-(trimethylsilyl)benzamide], 14%.
On the same count and under the same terms, the result for `C=C(C)CNC(=O)c1c(Cl)cccc1[Si](C)(C)C` [Example 147, 2-Chloro-N-(2-methyl-2-propenyl)-6-(trimethylsilyl)benzamide] reads < 0%.
For `CC1C=CC(C)N1C(=O)c1c(Cl)cccc1[Si](C)(C)C` (stereo not drawn) [Example 149, 1-[2-Chloro-6-(trimethylsilyl)benzoyl)-2,5-dihydro-2,5-dimethyl-1H-pyrrole], the inhibition at 0.1 ppm is < 0%.
Still for that read-out and setting: then `CC(CO)NC(=O)c1c(Cl)cccc1[Si](C)(C)C` (stereo not drawn) [Example 154, 2-Chloro-N-(2-hydroxy-1-methylethyl)-6-(trimethylsilyl)benzamide], with < 0%; and `CC(C)c1ccccc1NC(=O)c1c(Cl)cccc1[Si](C)(C)C` [Example 156, 2-Chloro-N-[2-(1-methylethyl)phenyl]-6-(trimethylsilyl)benzamide], with 9%.

The assay is the same for the next values; noted with them: Gaeumannomyces graminis; 1 ppm in minimal media agar; dark, 19-20° C., 4 to 5 days; diameter of mycelial growth; read-out: In vitro (ppm) 1, Percent Inhibition.
As to `COc1ccc(CNC(=O)c2c(Cl)cccc2[Si](C)(C)C)cc1` [Example 136, 2-Chloro-N-[(4-methoxyphenyl)methyl]-6-(trimethylsilyl)benzamide], the inhibition at 1 ppm was found to be 26%.
Same read-out and setting: then `C[Si](C)(C)c1cccc(Cl)c1C(=O)NCc1ccc([N+](=O)[O-])cc1` [Example 137, 2-Chloro-N-[(4-nitrophenyl)-methyl]-6-(trimethylsilyl)-benzamide], with 61%; and `C[Si](C)(C)c1cccc(Cl)c1C(=O)NCc1cccs1` [Example 138, 2-Chloro-N-(2-thienylmethyl)-6-(trimethylsilyl)benzamide], with 36%; and `COc1cccc(CNC(=O)c2c(Cl)cccc2[Si](C)(C)C)c1` [Example 139, 2-Chloro-N-[(3-methoxyphenyl)methyl]-6-(trimethylsilyl)benzamide], with 53%.
In the case of `COc1cc(CNC(=O)c2c(Cl)cccc2[Si](C)(C)C)cc(OC)c1OC` [Example 140, 2-Chloro-N-[(3,4,5-trimethoxyphenyl)methyl]-6-(trimethylsilyl)benzamide], the inhibition at 1 ppm stood at 19%.
As to `C[Si](C)(C)c1cccc(Cl)c1C(=O)NCc1cccc([N+](=O)[O-])c1` [Example 141, 2-Chloro-N-[(3-nitrophenyl)-methyl]-6-(trimethylsilyl)-benzamide], the inhibition at 1 ppm was 64%.
The same measure, in the same setting: the result for `C[Si](C)(C)c1cccc(Cl)c1C(=O)NCC#N` [Example 142, 2-Chloro-N-(cyanomethyl)-6-(trimethylsilyl)benzamide] reads < 0%.
Same read-out and setting: the result for `CCN(CO)C(=O)c1c(C)cccc1[Si](C)(C)C` [Example 143, N-Ethyl-N-(hydroxymethyl)-2-methyl-6-(trimethylsilyl)benzamide] reads 13%; that for `C[Si](C)(C)c1cccc(Cl)c1C(=O)NCc1ccc2c(c1)OCO2` [Example 144, N-(1,3-benzodioxol-5-ylmethyl)-2-chloro-6-(trimethylsilyl)benzamide], 11%; that for `C[Si](C)(C)c1cccc(Cl)c1C(=O)NCc1ccncc1` [Example 145, 2-Chloro-N-(4-pyridinylmethyl)-6-(trimethylsilyl)benzamide], < 0%.
Same read-out and setting: then `COCCNC(=O)c1c(Cl)cccc1[Si](C)(C)C` [Example 146, 2-Chloro-N-(2-methoxyethyl)-6-(trimethylsilyl)benzamide], with 65%; and `C=C(C)CNC(=O)c1c(Cl)cccc1[Si](C)(C)C` [Example 147, 2-Chloro-N-(2-methyl-2-propenyl)-6-(trimethylsilyl)benzamide], with < 0%; and `CC1C=CC(C)N1C(=O)c1c(Cl)cccc1[Si](C)(C)C` (stereo not drawn) [Example 149, 1-[2-Chloro-6-(trimethylsilyl)benzoyl)-2,5-dihydro-2,5-dimethyl-1H-pyrrole], with < 0%.
As for `CC(CO)NC(=O)c1c(Cl)cccc1[Si](C)(C)C` (stereo not drawn) [Example 154, 2-Chloro-N-(2-hydroxy-1-methylethyl)-6-(trimethylsilyl)benzamide], the inhibition at 1 ppm was < 0%.
`CC(C)c1ccccc1NC(=O)c1c(Cl)cccc1[Si](C)(C)C` [Example 156, 2-Chloro-N-[2-(1-methylethyl)phenyl]-6-(trimethylsilyl)benzamide]: the inhibition at 1 ppm amounted to 33%.

The assay is the same for the next values; noted with them: Gaeumannomyces graminis; 10 ppm in minimal media agar; dark, 19-20° C., 4 to 5 days; diameter of mycelial growth; read-out: In vitro (ppm) 10, Percent Inhibition.
On to `COc1ccc(CNC(=O)c2c(Cl)cccc2[Si](C)(C)C)cc1` [Example 136, 2-Chloro-N-[(4-methoxyphenyl)methyl]-6-(trimethylsilyl)benzamide], for which the inhibition at 10 ppm worked out at 100%.
The same measure, in the same setting: the result for `C[Si](C)(C)c1cccc(Cl)c1C(=O)NCc1ccc([N+](=O)[O-])cc1` [Example 137, 2-Chloro-N-[(4-nitrophenyl)-methyl]-6-(trimethylsilyl)-benzamide] reads 100%; that for `C[Si](C)(C)c1cccc(Cl)c1C(=O)NCc1cccs1` [Example 138, 2-Chloro-N-(2-thienylmethyl)-6-(trimethylsilyl)benzamide], 97%; that for `COc1cccc(CNC(=O)c2c(Cl)cccc2[Si](C)(C)C)c1` [Example 139, 2-Chloro-N-[(3-methoxyphenyl)methyl]-6-(trimethylsilyl)benzamide], 100%.
The same measure, in the same setting: then `COc1cc(CNC(=O)c2c(Cl)cccc2[Si](C)(C)C)cc(OC)c1OC` [Example 140, 2-Chloro-N-[(3,4,5-trimethoxyphenyl)methyl]-6-(trimethylsilyl)benzamide], with 81%; and `C[Si](C)(C)c1cccc(Cl)c1C(=O)NCc1cccc([N+](=O)[O-])c1` [Example 141, 2-Chloro-N-[(3-nitrophenyl)-methyl]-6-(trimethylsilyl)-benzamide], with 100%.
Take `C[Si](C)(C)c1cccc(Cl)c1C(=O)NCC#N` [Example 142, 2-Chloro-N-(cyanomethyl)-6-(trimethylsilyl)benzamide]: the inhibition at 10 ppm was 59%.
On the same count and under the same terms, the result for `CCN(CO)C(=O)c1c(C)cccc1[Si](C)(C)C` [Example 143, N-Ethyl-N-(hydroxymethyl)-2-methyl-6-(trimethylsilyl)benzamide] reads 74%; that for `C[Si](C)(C)c1cccc(Cl)c1C(=O)NCc1ccc2c(c1)OCO2` [Example 144, N-(1,3-benzodioxol-5-ylmethyl)-2-chloro-6-(trimethylsilyl)benzamide], 59%.
On to `C[Si](C)(C)c1cccc(Cl)c1C(=O)NCc1ccncc1` [Example 145, 2-Chloro-N-(4-pyridinylmethyl)-6-(trimethylsilyl)benzamide], for which the inhibition at 10 ppm was 27%.
Same read-out and setting: the result for `COCCNC(=O)c1c(Cl)cccc1[Si](C)(C)C` [Example 146, 2-Chloro-N-(2-methoxyethyl)-6-(trimethylsilyl)benzamide] reads 84%.
For the compound `C=C(C)CNC(=O)c1c(Cl)cccc1[Si](C)(C)C` [Example 147, 2-Chloro-N-(2-methyl-2-propenyl)-6-(trimethylsilyl)benzamide], the inhibition at 10 ppm was 58%.
As for `CC1C=CC(C)N1C(=O)c1c(Cl)cccc1[Si](C)(C)C` (stereo not drawn) [Example 149, 1-[2-Chloro-6-(trimethylsilyl)benzoyl)-2,5-dihydro-2,5-dimethyl-1H-pyrrole], the inhibition at 10 ppm was 80%.
Same read-out and setting: the result for `CC(CO)NC(=O)c1c(Cl)cccc1[Si](C)(C)C` (stereo not drawn) [Example 154, 2-Chloro-N-(2-hydroxy-1-methylethyl)-6-(trimethylsilyl)benzamide] reads 69%.
For `CC(C)c1ccccc1NC(=O)c1c(Cl)cccc1[Si](C)(C)C` [Example 156, 2-Chloro-N-[2-(1-methylethyl)phenyl]-6-(trimethylsilyl)benzamide], the inhibition at 10 ppm is 72%.

Values taken from patent US6410558B1, “Fungicides for the control of take-all disease of plants” (Monsanto Technology LLC, priority 1991, dated 2002).
